According to patent US9683986B2, “Treatment of cancer by inhibition of the MYD88/ERK MAP kinase interaction” (CENTRE LEON BERARD, priority 2011, dated 2017):

Test system: HCT116 p53+/+ or p53−/− tumor
Experiment: Subcutaneous HCT116 shMyD88 tumors in nude mice, doxycyclin-induced MyD88 extinction
Assay type: in vivo
Conditions: HCT116 cells stably expressing doxycyclin-inducible MyD88 shRNA, treated with doxycyclin
Description: Then we generated HCT116 p53+/+ or p53−/− stably expressing a doxycyclin-inducible MyD88 shRNA. These cell lines were subcutaneously implanted in nude mice, then the mice were treated or not with doxycyclin to induce MyD88 extinction in the tumor.

## MyD88 shRNA: doxycyclin-inducible MyD88 shRNA stably expressed in HCT116 cells (sense CGGACCCTAAATCCAATAGAAA; antisense TTTCTATTGGATTTAGGGTCCT)
  Tumor growth in vivo: blocks tumor growth in vivo
